The nature of data set [1]: Hemolytic activity in mouse erythrocytes assessed as haemoglobin release at 400 uM incubated for 1 hrs by microplate reader method. Conditions: read-out: Activity. The data set is classed as toxicity, cell-based, Erythrocyte.
The subject of data set [2] is Pseudomonas aeruginosa. The data set is described as follows: Antimicrobial activity against Pseudomonas aeruginosa ATCC 27853 assessed as inhibition of bacterial growth incubated for 18 hrs by serial dilution method. The data set is classed as functional.
The subject of data set [3] is Escherichia coli. Nature of the data set: Antimicrobial activity against Escherichia coli ML-35 assessed as inhibition of bacterial growth incubated for 18 hrs by serial dilution method. Format: functional.
Data set [4] has as its system Pseudomonas aeruginosa. Nature of the data set: Antimicrobial activity against Pseudomonas aeruginosa PAO1 assessed as inhibition of bacterial growth incubated for 18 hrs by serial dilution method. Format: functional.
The test system of data set [5] is Staphylococcus aureus. The data set is described as follows: Antimicrobial activity against Staphylococcus aureus ATCC 25923 assessed as inhibition of bacterial growth incubated for 18 hrs by serial dilution method. Format: functional.
For data set [6], the species on record is Mus musculus. Nature of the data set: Wound healing activity in Kunming mouse full-thickness excisional wound model assessed as increase in wound closure at 1 10^-7M, TOP BID and measured upto 8 days by image analysis. Format: functional, organism-based. Conditions: time <= 8.0 day.
The subject of data set [7] is Bacillus subtilis. The data set is described as follows: Antimicrobial activity against Bacillus subtilis ATCC 23857 assessed as inhibition of bacterial growth incubated for 18 hrs by serial dilution method. The data set is classed as functional.
Data set [8] deals with Staphylococcus aureus. Nature of the data set: Antimicrobial activity against Staphylococcus aureus ATCC 29213 assessed as inhibition of bacterial growth incubated for 18 hrs by serial dilution method. Format: functional.
The test system of data set [9] is NIH3T3. Nature of the data set: Induction of cell proliferation in mouse NIH3T3 cells assessed as increase in cell viability at 0.1 to 1000 nM incubated for 48 hrs by MTT assay. The data set is classed as functional, cell-based. Conditions: dose 0.1-1000 nM.
Data set [10] relates to RAW264.7. The data set is described as follows: Anti-inflammatory activity in LPS-stimulated mouse RAW264.7 cells assessed as inhibition of NO production at 16 uM incubated for 24 hrs by Griess reagent based assay. Format: functional, cell-based.
Data set [11] concerns NIH3T3. Nature of the data set: Induction of cell migration in mouse NIH3T3 cells assessed as […] at 0.1 to 1000 nM incubated for 48 hrs by phase-contrast microscopy based scratch wound healing assay. The data set is classed as functional. The note with it: dose 0.1-1000 nM.
Data set [12] deals with Escherichia coli. Nature of the data set: Antimicrobial activity against Escherichia coli ATCC 25922 assessed as inhibition of bacterial growth incubated for 18 hrs by serial dilution method. The data set is classed as functional.
Data set [13] concerns RAW264.7. The data set is described as follows: Cytotoxicity against mouse RAW264.7 cells assessed as reduction in cell viability at 1 to 16 uM incubated for 24 hrs by MTT assay. Format: toxicity, cell-based. The note with it: raw264.7, 24 h, dose 1-16 µM.
Data set [14] concerns HEK293. The data set is described as follows: Induction of cell proliferation in human HEK293 cells assessed as increase in cell viability at 0.1 to 1000 nM incubated for 48 hrs by MTT assay. Conditions: dose 0.1-1000 nM. The data set is classed as functional, cell-based.
For data set [15], the system named is HEK293. The data set is described as follows: Induction of cell proliferation in human HEK293 cells expressing NK1R assessed as increase in cell viability at 0.1 to 1000 nM incubated for 48 hrs by MTT assay. The note with it: dose 0.1-1000 nM. Format: functional, cell-based.
For data set [16], the system named is Lipopolysaccharide (LPS). The data set is described as follows: Binding affinity to Escherichia coli O111:B4 LPS assessed as dissociation constant by ITC assay.
Data set [17] deals with RAW264.7. The data set is described as follows: Anti-inflammatory activity against LPS-stimulated mouse RAW264.7 cells assessed as reduction in TNF-alpha mRNA expression level at 1 to 16 uM incubated for 4 hrs by RT-qPCR analysis. Format: functional, cell-based. The note with it: dose 1-16 µM.
The test system of data set [18] is RAW264.7. Nature of the data set: Anti-inflammatory activity against LPS-stimulated mouse RAW264.7 cells assessed as reduction in IL-6 mRNA expression level at 1 to 16 uM incubated for 4 hrs by RT-qPCR analysis. Conditions: dose 1-16 µM. The data set is classed as functional, cell-based.
Data set [19] can be described thus: Cytotoxicity against mouse RAW264.7 cells assessed as cell survival rate at 16 uM incubated for 24 hrs by MTT assay. The data set is classed as toxicity, cell-based. Conditions: read-out: Survival.
In data set [20] the test system is RAW264.7. The data set is described as follows: Anti-inflammatory activity against LPS-stimulated mouse RAW264.7 cells assessed as reduction in IL-1beta mRNA expression level at 1 to 16 uM incubated for 4 hrs by RT-qPCR analysis. The note with it: dose 1-16 µM. The data set is classed as functional, cell-based.
The species named for data set [21] is Mus musculus. The data set is described as follows: Wound healing activity in Kunming mouse full-thickness excisional wound model with splints assessed as increase in wound healing rate at 1 10^-7M, TOP BID and measured upto 8 days by image analysis. The data set is classed as functional, organism-based. The note with it: time <= 8.0 day.
Data set [22] is filed under the species Mus musculus. The data set is described as follows: Wound healing activity in Staphylococcus aureus ATCC 25923 infected Kunming mouse excisional wound model assessed as increase in wound repair at 1 10^-4M, TOP BID and measured upto 8 days by image analysis. The data set is classed as functional, organism-based. Conditions: time <= 8.0 day.
Data set [23] is filed under the species Mus musculus. Nature of the data set: Antimicrobial activity in Staphylococcus aureus ATCC 25923 infected Kunming mouse excisional wound model assessed as decrease in bacterial growth at 1 10^-4M, TOP BID and measured upto 8 days by image analysis. Format: functional, organism-based. Conditions: time <= 8.0 day.
For data set [24], the system named is Staphylococcus aureus. Nature of the data set: Bactericidal activity against Staphylococcus aureus ATCC 25923 assessed as reduction in colony forming unit at 2 times MIC and measured after 120 mins by time-kill kinetics assay. Format: functional, organism-based.

Converted amounts (≈) assume the structure as drawn. The source made the active and inactive calls. No cut-off for these calls is given here.

For `CSCC[C@H](NC(=O)[C@H](CC(C)C)NC(=O)CNC(=O)[C@H](Cc1ccccc1)NC(=O)[C@H](Cc1ccccc1)NC(=O)[C@H](CCC(N)=O)NC(=O)[C@H](CO)NC(=O)[C@H](C)NC(=O)[C@H](CCCCN)NC(=O)CNC(=O)[C@@H](N)[C@H](C)O)C(N)=O`, in [1], the hemolysis at 1 h, 400 µM was 5.05%. In addition, the minimum inhibitory concentration (MIC) in [2], in data set [3], in [4], in [5], in data set [7] and in [8] was greater than 128 µM in each case. Further, in [12], the MIC is greater than 128 µM. Also, the outcome in data set [6], in data set [9], in data set [11] and in data set [15] was Active. In addition, in [10], the inhibition entry is “inactive”. The Activity entry in data set [13] is listed as “Non-Toxic”. The result in data set [14] was inactive.
Take H-LKKWLKKWTPKASQFFGLM-NH2: in [1], the hemolysis at 1 h, 400 µM is 2.94%. Further, the Kd in data set [16] worked out at 311 µM. The MIC in data set [2] is 2 µM; in data set [3], 2 µM; in data set [4], 4 µM; in data set [5] it was 32 µM; in data set [7] it was 2 µM; in [8] it was 32 µM. The MIC in [12] is 2 µM. Also, the Activity result in data set [17], in [18] and in data set [20] was “Dose-Dependent Effect” each time. Besides, the outcome in data set [6], in data set [9], in [11], in data set [15] and in [21] was Active. Further, the inhibition result in data set [10] was “Active”. The result in data set [14] was inactive. Besides, the viability at 24 h, 16 µM in [19] is greater than 90%.
In the case of H-LKKWLKKWTGKASQFFGLM-NH2, the hemolysis at 1 h, 400 µM in data set [1] amounted to 7.88%. Also, in data set [16], the Kd was found to be 25 µM. The MIC amounted to 4 µM in [2]; 2 µM in data set [3]; 4 µM in data set [4]; 4 µM in data set [5]; 2 µM in [7]; 8 µM in data set [8]. Moreover, the MIC in [12] is 2 µM. Besides, the Activity entry in data set [17], in data set [18] and in data set [20] was “Dose-Dependent Effect” each time. The outcome in data set [6], in data set [9], in [11], in [15] and in [21] was Active. Also, the inhibition result in data set [10] was “Active”. Moreover, the outcome in data set [14] was inactive. Further, in data set [19], the viability at 24 h, 16 µM was greater than 90%.
H-LKKWTGKASQFFGLM-NH2: the hemolysis at 1 h, 400 µM in [1] is 1.01%. The minimum inhibitory concentration (MIC) in data set [2] was 128 µM; in data set [3], 64 µM; in [4], 128 µM; in data set [5], greater than 128 µM; in data set [7] it was 64 µM; in data set [8] it was greater than 128 µM. For the same molecule, in [12], the MIC amounted to 64 µM. The outcome in data set [6] was Active. In addition, the inhibition result in [10] is “inactive”. Moreover, in data set [13], the Activity entry is reported as “Non-Toxic”.
For the molecule `CC1(C)S[C@@H]2[C@H](NC(=O)[C@H](N)c3ccc(O)cc3)C(=O)N2[C@H]1C(=O)O` [AMOXICILLIN], the MIC in data set [2] is greater than 128 µM; in [3], 16 µM (≈ 5.85 µg/mL); in [4], greater than 128 µM; in data set [5], less than 1 µM; in data set [7], 8 µM (≈ 2.92 µg/mL); in data set [8], 2 µM (≈ 0.731 µg/mL). The MIC in data set [12] was determined as 4 µM (≈ 1.46 µg/mL).
Consider H-LKKWTLKASQFFGLM-NH2, for which the hemolysis at 1 h, 400 µM in data set [1] was 11.2%. Besides, the MIC in [2] is 64 µM; in data set [3], 16 µM; in [4] it was 64 µM; in data set [5] it was greater than 128 µM; in [7], 16 µM; in [8], 128 µM. Further, in data set [12], the MIC amounted to 16 µM. Also, in data set [6], the result was Active. Besides, the inhibition result in data set [10] is “Active”. For the same molecule, the viability at 24 h, 16 µM in data set [19] was greater than 90%.
Consider `CN[C@H](CC(C)C)C(=O)N[C@H]1C(=O)N[C@@H](CC(N)=O)C(=O)N[C@H]2C(=O)N[C@H]3C(=O)N[C@H](C(=O)N[C@H](C(=O)O)c4cc(O)cc(O)c4-c4cc3ccc4O)[C@H](O)c3ccc(c(Cl)c3)Oc3cc2cc(c3O[C@@H]2O[C@H](CO)[C@@H](O)[C@H](O)[C@H]2O[C@H]2C[C@](C)(N)[C@H](O)[C@H](C)O2)Oc2ccc(cc2Cl)[C@H]1O` [VANCOMYCIN], for which the minimum inhibitory concentration (MIC) in [2] was greater than 128 µM; in data set [3], 64 µM (≈ 92.8 µg/mL); in [4], greater than 128 µM; in data set [5], less than 1 µM; in data set [7], less than 1 µM; in data set [8], less than 1 µM. In addition, in [12], the MIC turned out to be 64 µM (≈ 92.8 µg/mL). For the same molecule, the result in [22] and in data set [23] was Active. Besides, in data set [24], the outcome was inactive.

The values are drawn from ChEMBL document CHEMBL5338731, “Development of Neuropeptide Hemokinin-1 Analogues with Antimicrobial and Wound-Healing Activity” (J Med Chem, 2023).
